This is an account of results in patent publication US20210386732A1, “SEMI-SOLID ANTI-HISTAMINE COMPOSITIONS AND METHODS OF MAKING AND USING THEREOF” (SEATTLE GUMMY COMPANY, priority 2018, published 2021).

A short description of data set [1]: Complex formation with β-cyclodextrin, association constant (ITC measurements for cetirizine). The conditions noted are these: beta versus alpha and gamma cyclodextrin. Type of data set: binding. The source says:
Alpha cyclodextrin consists of a ring of 6 glucose units while beta has 7 glucose units in a ring and gamma has 8 glucose units in a ring. The ring structures form a crown. The inside of the crown is able to complex with APIs in the current application. […] Either the phenyl group or the 4-chlorophenyl group fit inside the ring structure. The inside cavity of cylcodextrins is largely hydrophobic, which is favorable for APIs' hydrophobic aromatic systems. The formation of the chelate structure is endothermically favorable due to electrostatic interactions of the pi system of the aromatic moiety with in the hydrophobic cavity and electronic interaction with the hydrogen atoms and glycidyl ether bonds. It is these electronic interactions between these systems of the cyclodextrin and the pi system that gives the favorable heat of formation. […] In one embodiment, the complexing composition consists essentially of beta-cyclodextrin.
Diphenhydramine forms complexes with cylcodextrins. The mechanism is similar to that of cetirizine. […] In one embodiment, the complexing agent comprises beta cyclodextrin, which is configured to form antihistamine complex. In some embodiments, the complexing agent comprises alpha-cyclodextrin, gamma-cyclodextrin, or a combination there. The action of coordination with diphenhydramine is similar to that of cetirizine.

The conditions of data set [2]: cited from earlier work.
The conditions of data set [3]: cited from earlier work. The source holds these as a separate data set.
For data set [4] the following is noted: cited from earlier work. The source holds these as a separate data set.
For data set [5] the following is noted: per 1 gram of water; cited from earlier work.

`O=C(O)COCCN1CCN(C(c2ccccc2)c2ccc(Cl)cc2)CC1` (stereo not drawn) [Cetirizine, cetirizine]: the “formation constant with beta cyclodextrin relative to alpha and gamma cyclodextrin” value in data set [1] was “nearly four times”. Further, the “association constant K(a) of the complex with γ-cyclodextrin” value in data set [2] is 1200 ± 50 M⁻¹. Moreover, the “association constant K(a) of the complex with β-cyclodextrin” value in data set [3] is 5641 ± 358 M⁻¹. In addition, the “association constant K(a) of the complex with α-cyclodextrin” value in data set [4] was 1434 ± 60 M⁻¹.

Regarding `O=C(CO)[C@@H](O)[C@H](O)[C@H](O)CO` [fructose], the “amount that dissolves into 1 gram of water” value in data set [5] was ~4 grams.

Regarding `OC[C@H]1O[C@@](CO)(O[C@H]2O[C@H](CO)[C@@H](O)[C@H](O)[C@H]2O)[C@@H](O)[C@@H]1O` [sucrose, O-α-D-glucopyranosyl-(1→2)-β-D-fructofuranoside], the “amount that dissolves into 1 gram of water” value in data set [5] is given as “More than 2 grams”.
